Measured values as given in PubChem BioAssay AID588710 (Vanderbilt Specialized Chemistry Center, 2011).

Molecular target: Metabotropic glutamate receptor 5 (Rattus norvegicus) (UniProt P31424)
Assay: PubChem AID 588710
Conditions: HEK293 rat mGluR5 membranes, [3H]methoxyPEPy displacement

Sequence of Metabotropic glutamate receptor 5 (Rattus norvegicus) (P31424 whole entry, looked up): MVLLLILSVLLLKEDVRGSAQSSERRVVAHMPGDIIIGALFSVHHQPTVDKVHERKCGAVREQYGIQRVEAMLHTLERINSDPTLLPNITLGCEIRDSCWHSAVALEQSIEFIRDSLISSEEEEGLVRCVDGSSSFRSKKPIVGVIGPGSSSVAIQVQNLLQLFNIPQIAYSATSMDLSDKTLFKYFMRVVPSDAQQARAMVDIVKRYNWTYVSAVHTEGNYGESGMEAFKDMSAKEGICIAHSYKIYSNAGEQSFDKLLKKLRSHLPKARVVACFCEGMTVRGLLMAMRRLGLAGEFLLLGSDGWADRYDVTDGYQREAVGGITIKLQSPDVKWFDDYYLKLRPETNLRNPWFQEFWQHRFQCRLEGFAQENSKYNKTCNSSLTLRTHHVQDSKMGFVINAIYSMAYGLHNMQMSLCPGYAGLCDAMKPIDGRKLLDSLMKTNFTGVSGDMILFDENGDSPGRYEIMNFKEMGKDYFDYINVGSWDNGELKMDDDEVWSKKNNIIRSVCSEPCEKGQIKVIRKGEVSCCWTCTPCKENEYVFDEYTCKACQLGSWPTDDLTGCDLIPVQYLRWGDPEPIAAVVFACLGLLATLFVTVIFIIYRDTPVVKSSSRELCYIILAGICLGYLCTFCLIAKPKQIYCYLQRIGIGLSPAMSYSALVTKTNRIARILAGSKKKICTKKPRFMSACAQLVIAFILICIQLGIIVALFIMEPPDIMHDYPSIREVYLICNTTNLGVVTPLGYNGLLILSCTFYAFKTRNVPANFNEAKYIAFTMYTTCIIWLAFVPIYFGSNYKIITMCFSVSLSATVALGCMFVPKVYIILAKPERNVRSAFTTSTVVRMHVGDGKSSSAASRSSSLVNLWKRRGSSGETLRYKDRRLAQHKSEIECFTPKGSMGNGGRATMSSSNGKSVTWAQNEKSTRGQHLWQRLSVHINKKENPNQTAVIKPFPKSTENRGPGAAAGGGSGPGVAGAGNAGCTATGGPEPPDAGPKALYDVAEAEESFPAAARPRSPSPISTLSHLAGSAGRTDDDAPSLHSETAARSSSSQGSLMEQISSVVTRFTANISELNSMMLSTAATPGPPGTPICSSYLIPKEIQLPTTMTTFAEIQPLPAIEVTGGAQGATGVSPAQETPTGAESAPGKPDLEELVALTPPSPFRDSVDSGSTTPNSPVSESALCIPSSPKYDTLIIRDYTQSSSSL

Work on `C[C@@H](NC(=O)c1ccc(C#Cc2cccc(F)c2)cn1)C(C)(C)O` yielded an IC50 of 4.84 nM.
